The text below walks through data of patent US20030129189A1, “Tumor necrosis factor-gamma” (priority 1994, published 2003).

One test has as its system NRK-54E. Put plainly: TNF-gamma activity on NRK-54E cells. Format: cell-based. Details: key: The numbers of “+” indicate the relative level of activities.; ++: The numbers of “+” indicate the relative level of activities.; +++: The numbers of “+” indicate the relative level of activities.; “−” indicates no detected activity at the concentration range tested. To be noted: rat kidney epithelial-like.

For the next test, the system named is Jurkat. Put plainly: TNF-gamma activity on Jurkat cells. The format is cell-based. Also on record: key: The numbers of “+” indicate the relative level of activities.; ++: The numbers of “+” indicate the relative level of activities.; +++: The numbers of “+” indicate the relative level of activities.; “−” indicates no detected activity at the concentration range tested. The conditions noted are these: human T-cell lymphoma. The procedure: The adherent target cells were prepared from confluent cultures by trypsinization in PBS, and non-adherent target cells were harvested from stationary cultures and washed once with medium. Target cells were suspended at 3×10^5 cells/ml in medium containing 10% FCS. 0.1 ml aliquots were dispensed into 96-well flat-bottomed microtiter plates containing 0.1 ml serially diluted test samples of cells (WEHI 164 and L929). Incubation was continued for 70 hours. TNF-alpha, TNF-beta and bacterially-produced TNF-gamma were added at a 0.5 μg/ml concentration. The cytotoxicity and proliferation activity was quantified using an MTS assay performed by the addition of 20 μl of MTS and phenazine methosulfate (PMS) solution to each well. After a three hour incubation, the OD at 492 nm was measured by an ELISA plate reader. The OD492 is proportional to the number of viable cells in the wells. The percent of cytotoxicity was calculated as follows: […]. The photographs were taken after 72 hours.

In another test the test system is A-431. As to the kind of experiment: TNF-gamma activity on A-431 cells. The format is cell-based. Also on record: key: The numbers of “+” indicate the relative level of activities.; ++: The numbers of “+” indicate the relative level of activities.; +++: The numbers of “+” indicate the relative level of activities.; “−” indicates no detected activity at the concentration range tested. The conditions noted are these: A-431, human epidermoid carcinoma.

For test [1], the system named is chorioallantoic membrane (CAM). As to the kind of experiment: Chicken embryonic chorioallantoic membrane (CAM) angiogenesis assay. Format: in vivo. The conditions noted are these: 250 ng bacterially-produced TNF-gamma mixed with FGF-2 (100 ng) or VEGF (250 ng). The procedure:
The CAM assay was carried out essentially as described by Nguyen and colleagues (Microvasc. Res. 47:31-40 (1994)) and Iruela-Arispe and Dvorak (Thromb. Haemost. 78:672-677 (1997)). The method is based on the growth of new capillary vessels into a collagen gel pellet placed directly on the chorioallantoic membrane (CAM). Angiogenic factors such as […], FGF-2 (100 ng), VEGF (250 ng), or bFGF (10, 500, and 1000 ng) were embedded in collagen gel pellets and placed in contact with the CAM. Quantification of angiogenesis in the gels was carried out 24 hours after the placement of the gel pellets by using a Nikon fluorescence microscope. The images were transferred to a Power PC 100 AV, using a CCD Sony camera. Fluorescence intensity was evaluated with NH Image 1.61 software. Fluorescence intensity for the positive controls (which contained an angiogenic factor alone) was considered as the maximum angiogenic response, and set, arbitrarily, at 100. Due to the variability of the assay, inhibition greater than 20% was considered significant.
As an experimental determination of the effect of TNF-gamma on the FGF-2- or VEGF-induced angiogenesis, bacterially-produced TNF-gamma (250 ng) was mixed with either FGF-2 (100 ng) or VEGF (250 ng) and embedded in collagen gel pellets. The pellets were then placed in contact with the CAM as described above.

Test [2] deals with NF-kappaB p65 DNA-binding in U-937 cells. As to the kind of experiment: NF-kappaB activation (EMSA). Format: cell-based. From the text:
Activation of cellular NF-kappaB is preceded by the phosphorylation, ubiquitination, and ultimate degradation of an endogenous NF-kappaB inhibitor molecule designated IkBa. Degradation of the inhibitor allows the p65 subunit of NF-kappaB to translocate to the nucleus where it can act as a transcriptional regulator. For this reason, a electrophoretic mobility shift analysis (EMSA) is an appropriate method for analyzing activation of cellular NF-kappaB by treatment of cultured cells with TNF-gamma.
In these analyses cells (2×10^6 per ml) were treated with different concentrations (0.1-1.0 μg/ml) of bacterially-produced TNF-gamma at 37° C. for 12 hours. Nuclear extracts were then prepared from the cultured cells and EMSA was performed as is well-known in the art and essentially as described (Singh, S. and Aggarwal, B. B. J. Biol. Chem. 270:10631-10636 (1995)).
For orientation: In EMSA bound probe runs differently from free probe, usually more slowly.

For test [3], the system named is c-Jun kinase (JNK) in U-937 cells. As to the kind of experiment: JNK kinase activation assay. To be noted: 0.1 to 3.0 μg/ml. Format: cell-based. The procedure:
The cellular kinase designated c-Jun kinase (JNK) is an early event in cellular activation. The activation of JNK by TNF-gamma was analyzed as an additional method of determining cellular reaction to treatment with TNF-gamma. The JNK kinase activation assay is well-known by one of skill in the art and has been described by Derijard and colleagues (Cell 76:1025-1029 (1994)). After treatment of U-937 cells with 0.1 to 3.0 μg/ml of TNF-gamma for 12 hours, the cells were harvested and assayed for JNK kinase activity. By 6 and 12 hours, JNK activity had increased 2- and 3.6-fold, respectively.

Take “TNF-gamma: new member of the tumor necrosis factor family; the term refers to TNF-gamma-alpha and/or TNF-gamma-beta”: in the test with NRK-54E, the Adhesion result is recorded as “−−”, the Differentiation result was “−−” and the Proliferation result is “−”. For the same substance, in the test with Jurkat, the Adhesion entry was “−−”, the Differentiation result is recorded as “−−” and the Proliferation result is given as “−”. Also, in the test with A-431, the Adhesion entry is “−−”, the Differentiation result is reported as “−−” and the Proliferation entry is recorded as “−”. The “new capillary growth into collagen gels (FGF-2- or VEGF-induced angiogenesis)” value in test [1] is recorded as “markedly inhibited new capillary growth into collagen gels”. Also, in test [2] (12 hours), the “concentration giving peak activation of DNA-binding by p65” value worked out at 1 µg/mL and the “lowest concentration giving an observable increase in p65 DNA-binding” value is 0.2 µg/mL. Besides, the “time span of p65 DNA-binding activation over basal levels” value in test [2] (after initiation of treatment) is recorded as “from 30 minutes to 18 hours”. Besides, the “increase in JNK activity” value in test [3] (by 6 hours) was determined as 2 fold. Also, the “increase in JNK activity” value in test [3] (by 12 hours) came to 3.6 fold.
